Assay results reported in patent publication US20090023814A1, “COMPOSITIONS AND METHODS HAVING MT1 RECEPTOR ACTIVITY” (AGI Therapeutics Research Ltd., priority 2007, published 2009).
Read-outs that look alike come from different tables or passages of the source.

Columns and labels:
[1] = biological target: T1, 5-HT2B receptor (Homo sapiens, UniProt P41595); test: 5-HT2B binding affinity, human recombinant-CHO cells, 5-HT as control (Bonhaus); details: for IC50: agonist 5-HT2B receptor
T1 construct: expressed in transfected cells; host or cells: CHO cells
T1 sequence (P41595 whole entry): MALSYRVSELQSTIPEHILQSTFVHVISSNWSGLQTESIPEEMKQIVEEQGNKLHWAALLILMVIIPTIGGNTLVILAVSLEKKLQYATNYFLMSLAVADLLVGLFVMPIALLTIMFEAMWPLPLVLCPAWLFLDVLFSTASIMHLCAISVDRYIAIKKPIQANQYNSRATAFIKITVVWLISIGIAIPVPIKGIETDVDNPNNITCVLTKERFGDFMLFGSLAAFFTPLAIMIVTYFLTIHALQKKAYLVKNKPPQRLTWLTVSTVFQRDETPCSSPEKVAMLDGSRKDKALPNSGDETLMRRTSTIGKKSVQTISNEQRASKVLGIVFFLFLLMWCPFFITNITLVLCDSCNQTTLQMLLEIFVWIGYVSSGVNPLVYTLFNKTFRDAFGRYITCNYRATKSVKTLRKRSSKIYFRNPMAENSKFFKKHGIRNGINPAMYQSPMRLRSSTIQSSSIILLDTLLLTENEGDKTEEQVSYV
Protocol: (§1) Each of those receptors were analyzed by methods known in the art. Initial assessment of binding at 100×10^−7 M (10 micro molar) was performed in duplicate.

[2] = biological target: melatonin ML-1; test: ML1 binding affinity, chicken brain; details: Table 2; relative potency compared to CCB
Protocol: as §1

[3] = biological target: T2, melatonin ML-1; test: ML1 binding affinity, chicken brain; details: Table 1; chicken brain
T2 construct: chicken brain
Protocol: as §1

[4] = biological target: T3, MT2 receptor (Homo sapiens, UniProt P49286); details: at 100×10^−7 M
T3 sequence (P49286 1-362): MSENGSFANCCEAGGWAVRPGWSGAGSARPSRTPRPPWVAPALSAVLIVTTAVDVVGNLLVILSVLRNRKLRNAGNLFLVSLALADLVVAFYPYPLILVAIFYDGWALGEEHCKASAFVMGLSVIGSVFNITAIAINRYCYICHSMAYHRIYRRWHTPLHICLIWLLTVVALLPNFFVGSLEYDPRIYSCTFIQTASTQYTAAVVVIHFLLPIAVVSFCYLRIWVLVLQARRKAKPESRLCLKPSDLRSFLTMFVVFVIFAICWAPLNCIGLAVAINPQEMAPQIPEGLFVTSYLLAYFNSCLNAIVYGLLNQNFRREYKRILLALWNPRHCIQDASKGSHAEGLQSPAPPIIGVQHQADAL
Protocol: as §1

[5] = biological target: melatonin MT-1 sub-receptor (Homo sapiens, UniProt P48039); details: Table 7
Sequence of melatonin MT-1 sub-receptor (P48039 whole entry): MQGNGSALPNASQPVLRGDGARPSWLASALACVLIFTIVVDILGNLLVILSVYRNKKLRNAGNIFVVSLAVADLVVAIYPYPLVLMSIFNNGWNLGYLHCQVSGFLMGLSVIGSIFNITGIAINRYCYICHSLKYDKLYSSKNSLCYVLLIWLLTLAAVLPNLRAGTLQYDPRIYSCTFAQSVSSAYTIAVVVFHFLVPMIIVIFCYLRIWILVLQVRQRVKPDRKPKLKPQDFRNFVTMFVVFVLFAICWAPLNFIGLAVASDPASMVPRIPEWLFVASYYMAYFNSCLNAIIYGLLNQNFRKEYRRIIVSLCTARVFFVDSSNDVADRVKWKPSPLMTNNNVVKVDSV
Protocol: as §1

SMILES | IC50 ([1]; Table 1) [nM] | percentage of binding 5-HT2B ([1]; Table 1, at 100×10^−7 M) [%] | (IC50: 5-HT2B)/(IC50: CCB) ([1]; Table 2, relative potency compared to CCB) | (IC50: ML-1)/(IC50: CCB) [2] | IC50 [3] [nM] | percentage of binding MT2 [4] [%] | % Binding MT-1 ([5]; at 0.1 ×10^−7 M) [%] | % Binding MT-1 ([5]; at 0.3 ×10^−7 M) [%] | % Binding MT-1 ([5]; at 1.0 ×10^−7 M) [%] | % Binding MT-1 ([5]; at 3.0 ×10^−7 M) [%]
CCOC(=O)C1=C(C)NC(C)=C(C(=O)OC)C1c1cccc(Cl)c1Cl (centres unmarked) [Felodipine] | 1300 | – | – | – | – | – | – | – | – | –
COC(=O)C1=C(C)NC(C)=C(C(=O)OC(C)C)C1c1cccc2nonc12 (centres unmarked) [Isradipine] | > 10000 | 3 | 21,739 | 4,348 | 2000 | – | – | – | – | –
COc1ccc(CCN(C)CCC[C@](C#N)(c2ccc(OC)c(OC)c2)C(C)C)cc1OC [R-verapamil, (R)-verapamil] | – | – | – | – | – | 0 | 13 | 35 | 67 | 83
